The source of these data is patent US20250108048A1, “STING AGONIST COMPOUNDS AND CONJUGATES” (SUTRO BIOPHARMA, INC., priority 2023, published 2025).

The EC50 is the concentration at which the effect is half-maximal. As usually defined, the pKd is the negative decadic logarithm of the Kd, by convention in mol/L. A word on the pEC50: it is the EC50 on a negative log10 scale, so that one unit is a factor of ten.

Molecules are shown by their SMILES. pEC50, pKd: −log10 of the molar value. Where two headings read alike, the source gives them in different places.

Experiment [1] has as its target T1, hSTING-R232 (Homo sapiens, UniProt Q86WV6, H232R).
T1 construct: host or cells: THP1-Dual KI-hSTING-R232 (from THP1-Dual KO-STING)
Description: THP1-Dual KI-hSTING-R232 reporter assay (IRF pathway, secreted Lucia luciferase). In kind it is cell-based. The conditions noted are these: THP1-Dual KI-hSTING-R232 cells, 24 hours; read-out: Reporter assay EC50 (nM) THP-1-R232. (In general: A reporter such as luciferase makes a cellular process visible.)

Experiment [2] addresses hSTING H232 (Homo sapiens, UniProt Q86WV6). Nature of the experiment: Surface plasmon resonance, hSTING H232. In kind it is binding. The conditions noted are these: read-out: hSTING H232 SPR (Kd).
In experiment [3] the test system is TROP2 positive NCI-H292 Cells. Description: Cytokine release from cancer cells (MSD). In kind it is cell-based, human. The conditions noted are these: 120 hours; for pEC50: Homo sapiens. As to the method:
The cell supernatant was collected and IP-10 and IL-6 released in the cell culture medium was measured using Streptavidin single spot 96 well plates, compatible human antibody pairs, and calibrating solutions commercially available from MesoScale Discovery. Raw data generated by the Meso Scale Discovery (MSD®) SQ120 plate reader was imported into MSD Discovery Workbench software. Unknown sample values were interpolated from standard curves by the software and imported into Graphpad Prism. Each cytokine level was fitted with non-linear regression analysis, using log (agonist) vs. response, variable slope, 4-parameter fit equation in GraphPad Prism.

In experiment [4] the test system is NCI-H292 cells. Nature of the experiment: Immunogenic cell death markers (HMGB1 release, surface calreticulin). In kind it is cell-based, human. Conditions: 48 hours. As to the method: Immunogenic cell death elicited by the TROP2 ADC, iSAC, and exatecan were measured by cell surface translocate of calreticulin and release of HMGB1 in the cell culture supernatant. Briefly, TROP2 positive cell line NCI-H292 were seeded into a 96-well flat bottom plate 4 hours prior to the initialization of the assay. Test articles were formulated at a 2× starting concentration in cell culture medium, and samples were serial diluted (1:3) under sterile conditions and added onto the cells in duplicates. After incubation at 37° C. in a CO2 incubator for 48 hours, the cell supernatant was collected for measuring HMGB1 and the adherent cells were collected for calreticulin expression on the cell surface.
HMGB1 released in the supernatant was assessed via sandwich ELISA using mouse anti-human HMGB1 clone 2F6 (Sigma-Aldrich) as the capture, polyclonal rabbit anti-human HMGB1 (Abcam) as secondary, and polyclonal goat anti-rabbit IgG HRP as the detection antibody. The HMGB1 concentrations in the cell culture medium were calculated based a standard curve built on commercially available recombinant human HMGB1 (R&D Systems).
NCI-H292 cells were detached using Accutase (Innovative Cell Technologies) and viability was accessed using a 1:500 dilution of Zombie NIR viability dye. […] Surface calreticulin measures on the live cells were gathered using an Attune NXT Flow Cytometer (ThermoFisher Scientific) to obtain median fluorescence intensity values. All data were fitted with non-linear regression analysis, using log(agonist) vs. response, variable slope, 4 parameter fit equation using GraphPad Prism.

T1 sequence (Q86WV6 whole entry H232R): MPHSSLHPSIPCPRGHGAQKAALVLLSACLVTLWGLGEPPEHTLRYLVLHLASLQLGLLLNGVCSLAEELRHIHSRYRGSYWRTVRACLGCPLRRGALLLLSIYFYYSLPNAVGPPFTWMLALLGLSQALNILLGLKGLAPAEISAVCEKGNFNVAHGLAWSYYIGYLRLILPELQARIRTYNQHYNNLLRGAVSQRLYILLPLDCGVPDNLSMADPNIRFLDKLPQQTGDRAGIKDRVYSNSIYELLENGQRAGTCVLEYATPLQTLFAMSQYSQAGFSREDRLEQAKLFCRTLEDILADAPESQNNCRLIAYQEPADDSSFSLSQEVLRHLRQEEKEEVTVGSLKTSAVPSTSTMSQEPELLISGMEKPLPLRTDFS
hSTING H232, sequence (Q86WV6 whole entry): as the sequence (Q86WV6 whole entry H232R) above, with R232H counted along it

With `CCn1nc(C)cc1C(=O)Nc1nc2cc(C(N)=O)cc(OC)c2n1C/C=C/Cn1c(NC(=O)c2cc(C)nn2CC)nc2cc(C(N)=O)cc(OCCCN3CCC(c4nnc5n4CCNC5)CC3)c21` [Compound 4, 1-[(E)-4-[5-carbamoyl-2-[(2-ethyl-5-methyl-pyrazole-3-carbonyl)amino]-7-[3-[4-(5,6,7,8-tetrahydro-[1,2,4]triazolo[4,3-a]pyrazin-3-yl)-1-piperidyl]propoxy]benzimidazol-1-yl]but-2-enyl]-2-[(2-ethyl-5-methyl-pyrazole-3-carbonyl)amino]-7-methoxy-benzimidazole-5-carboxamide; 2,2,2-trifluoroacetic acid], in experiment [1], the EC50 was 50 to 150 nM. In experiment [2], the pKd was at least 7.70. Moreover, the “IL-6 Release Span” value in experiment [3] was over 8000 pg/mL. The “IP-10 Release Span” value in experiment [3] was over 4000 pg/mL. The pEC50 in experiment [3] (read-out: IL-6 Release EC50) was under 7.00; in experiment [3] (read-out: IP-10 Release EC50), under 7.00; in experiment [4] (Homo sapiens, sandwich ELISA, read-out: HMGB-1 Release EC50), 8.13. Moreover, the “HMGB-1 Release Span” value in experiment [4] worked out at 11 ng/mL.
